{
  "source": "paper PMC10666548",
  "about": "“Identification of the bacterial metabolite aerugine as potential trigger of human dopaminergic neurodegeneration” (Environment international, 2023)",
  "key": {"[1]": {"system": "aerugine (10 μM) cytotoxicity in LUHMES cultures (d6)", "assay": "Modulation of aerugine-induced neurodegeneration by mechanistic inhibitors", "assay_type": "cell-based, human", "details": "24 h; for prevention of aerugine-induced cell death (viability) / maximal prevention of aerugine neurotoxicity: inhibitor 15 min prior to 10 μM aerugine", "protocol": "(§1) For toxicity assessment of mature LUHMES neurons, precursor cells were pre-differentiated for 2 days in cell culture flasks pre-coated as described above and differentiation medium. Then, 45′000 cells per well were seeded in differentiation medium into standard 96-well plates pre-coated as described above. They were incubated at 37 °C and 5% CO2 for 4 days before compound treatment. At this time, cells were >99% post-mitotic and had established an extensive neurite network ([Scholz et al., 2011]) The cell viability was assessed via the Calcein/Hoechst readout, the LDH assay and the resazurin reduction assay.\n(§2) Neurite area (NA) and viability (V) were assessed as described previously ([Stiegler et al., 2011]). In brief, cells were stained with 1 μM calcein-AM and 1 μg/ml H-33342 for 30 min at 37 °C and 5% CO2. Image acquisition was performed using an Array-Scan VTI HCS Reader (Cellomics, PA, USA) equipped with a Hamamatsu ORCA-ER camera. 10 fields per well were imaged with 2 channels at 20x magnification (2×2 pixel binning). Excitation/emission wavelengths of 365 ± 50/535 ± 45 nm were used for Hoechst detection in channel 1 and 474 ± 40/535 ± 45 nm were used for calcein detection in channel 2.\nFig. 4. Modulation of aerugine-induced neurodegeneration by mechanistic inhibitors. LUHMES cultures (d6) were used under standard conditions to assess the cytotoxicity of aerugine (10 μM) in the presence of various agents known to interfere with cell death pathways. A Treatment scheme: the respective inhibitors were applied 15 min prior to aerugine treatment (10 μM), and the viability was determined by high-content imaging after 24 h. B Inhibitors were used at different concentrations, as indicated. The main biochemical activity of each agent is indicated in brackets. Data are means ± SEM of at least three biological replicates with 3 technical replicates each. DFP = deferiprone; DFO = deferoxamine; qVD = caspase inhibitor; RIPK = receptor-interacting serine/threonine-protein kinase. For statistical analysis, the lowest concentration of inhibitor that produced the maximal protective effect (red) was compared to the treatment with aerugine alone using a two-tailed t-test (*: p = 0.01). C Exemplary pictures of LUHMES cultures after 24 h treatment: negative control (=DMSO), positive control (=10 μM aerugine), DFP (=20 μM DFP + 10 μM aerugine) and qVD (=5 μM qVD + 10 μM aerugine). Arrows indicate cells with a broken cell membrane (calcein-negative) and condensed nuclei (small H-33342-positive area). Arrow heads indicate disintegrating neurites (chains of calcein-positive blebs)."}, "[2]": {"system": "human dopaminergic neurons (LUHMES cells)", "assay": "Cytotoxicity to mature (d6) LUHMES neurons, calcein-AM & H-33342 high content imaging", "assay_type": "cell-based", "details": "d6 LUHMES; for cytotoxicity to DAergic neurons (viability): 24 h (24 h and 48 h for purified compounds)", "protocol": "as §1, §2\nNuclei were identified in channel 1 depending on intensity, area, size and shape. Their outlines were expanded by 3.2 μm to define a virtual cell soma area (VCSA), which was bigger than the average cell soma to prevent false positive NAs. All calcein-positive pixels were defined as viable cellular structures (VCSs). The NA was automatically calculated by excluding the VCSAs from the VCSs. Furthermore all nuclei co-localizing with VCSs were defined as alive."}},
  "note": "Entries after “also recorded” stand apart in the source; their conditions may differ.",
  "data": [
    {"smiles": "N[C@@H](Cc1ccc(O)c(I)c1)C(=O)O", "note": "[3-iodo-tyrosine]", "values": [
      {"measurement": "prevention of aerugine-induced cell death (viability)", "setting": "[1]", "result": "had no effect at all"}
    ]},
    {"smiles": "O=C(O)C1CSC(c2ccccc2O)=N1", "note": "(stereo not shown) [DHAA, Dihydroaeruginoic acid, reference compound]", "values": [
      {"measurement": "cytotoxicity to DAergic neurons (viability)", "setting": "[2]", "result": "all toxicity was lost"}
    ]},
    {"smiles": "O=Cc1csc(-c2ccccc2O)n1", "note": "[IQS, aeruginealdehyde]", "values": [
      {"measurement": "cytotoxicity to DAergic neurons (viability)", "setting": "[2]", "result": "about equipotent with aeruginol"},
      {"measurement": "concentration range killing DAergic neurons", "setting": "[2]; within 24 h", "result": "10 to 25", "unit": "µM"}
    ]},
    {"smiles": "OCc1csc(-c2ccccc2O)n1", "note": "[aeruginol]", "values": [
      {"measurement": "cytotoxicity to DAergic neurons (viability)", "setting": "[2]", "result": "cytotoxic to DAergic neurons in a time- and concentration-dependent manner"}
    ]},
    {"smiles": "N[C@@H](CS)C(=O)O", "note": "[cysteine]", "values": [
      {"measurement": "maximal prevention of aerugine neurotoxicity", "setting": "[1]", "result": "60–90%"}
    ]},
    {"smiles": "O=CC1CSC(c2ccccc2O)=N1", "note": "(stereo not shown) [dhIQS, dihydro-aeruginealdehyde]", "values": [
      {"measurement": "cytotoxicity to DAergic neurons (viability)", "setting": "[2]", "result": "all toxicity was lost"}
    ]},
    {"smiles": "O=c1c2ccccc2[se]n1-c1ccccc1", "note": "[ebselen]", "values": [
      {"measurement": "maximal prevention of aerugine neurotoxicity", "setting": "[1]", "result": "60–90%"}
    ]},
    {"smiles": "CCOC(=O)c1ccc(NC2CCCCC2)c(N)c1", "note": "[ferrostatin]", "values": [
      {"measurement": "maximal prevention of aerugine neurotoxicity", "setting": "[1]", "result": "60–90%"}
    ]},
    {"smiles": "CN1C(=O)C(Cc2c[nH]c3ccccc23)NC1=S", "note": "(stereo not shown) [necrostatin-1]", "values": [
      {"measurement": "prevention of aerugine-induced cell death (viability)", "setting": "[1]", "result": "only slightly attenuated cell death"}
    ]},
    {"smiles": "CC(C)[C@H](NC(=O)c1ccc2ccccc2n1)C(=O)N[C@@H](CC(=O)O)C(=O)COc1c(F)cccc1F", "note": "[qVD]", "values": [
      {"measurement": "neurite structure in presence of inhibitor", "setting": "[1]; 10 μM aerugine", "result": "damage to the neurites still occurred and lost"},
      {"measurement": "optimal concentrations for prevention of cell death", "setting": "[1]; 10 μM aerugine", "result": "2 to 4", "unit": "µM"},
      {"measurement": "prevention of aerugine-induced cell death (viability)", "setting": "[1]", "result": "completely prevented; also recorded: prevented cell death"}
    ]}
  ]
}
